Results from patent publication US10611750B2, “Tetrahydroquinoline compositions as bet bromodomain inhibitors” (FORMA Therapeutics, Inc., priority 2013, dated 2020).

How the values were obtained:
[1] = target: T1, BRD4 Bromodomain 1 (BRD4 BD1) (Homo sapiens, UniProt O60885); assay: AlphaScreen binding assay, BRD4 BD1; settings: His-tagged BRD4 BD1 50 nM, biotinylated H4 (1-21) K5/8/12/16 tetra-acetylated peptide 50 nM, compounds listed under IC50 range headings
T1 construct: 44-168 and BRD4 BD2
Outline: (§1)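 Compound dilution series were mixed with His-tagged BRD4 bromodomain and biotinylated tetra-acetylated H4 (1-21) peptide at pH 7.3 (BD1 and peptide at 50 nM, BD2 and peptide at 100 nM). Donor and acceptor beads were then added, and plates were equilibrated at least 1 h before reading. IC50 values were fitted with a four-parameter logistic model.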

[2] = target: T2, BRD4 Bromodomain 2 (BRD4 BD2) (Homo sapiens, UniProt O60885); assay: AlphaScreen binding assay, BRD4 BD2; settings: His-tagged BRD4 BD2 100 nM, biotinylated H4 (1-21) K5/8/12/16 tetra-acetylated peptide 100 nM, compounds listed under IC50 range headings
T2 construct: 333-460 were cloned, expressed, and purified to homogeneity
Outline: as §1

[3] = test system: acute myelocytic leukemia (AML) cell line MV4-11; assay: Oncology cell growth assay (3-day proliferation, CellTiter-Glo); format: cell-based; settings: Homo sapiens, MV4-11, 72 h, MV4-11 cells, 3000 cells/well, compounds listed under IC50 range headings, read-out: MV411 IC50 (gIC50, inhibition of proliferation)
Outline: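 MV4-11 AML cells (RPMI 1640, 10% FBS) plated at 3000 cells/well and exposed 72 h to compound at final 10 to 0.0045 μM (3-fold series). Viability read by CellTiter-Glo luminescence; gIC50 from four-parameter logistic fit between DMSO control and no-cell background.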

SMILES | IC50 [1] [nM] | IC50 [2] [nM] | IC50 [3] [nM]
COC(=O)N1c2ccc(-c3cnn(CC(C)(C)O)c3)c(Oc3ncccc3C(F)(F)F)c2CC[C@@H]1C [I-563] | 1000 to 10000 | < 50 | > 1000
COC(=O)N1c2ccc(-c3cnn(CCO)c3)c(Oc3ncccc3C(F)(F)F)c2CC[C@@H]1C [I-564] | 1000 to 10000 | 50 to 500 | 500 to 1000
COC(=O)N1c2ccc(-c3cnn(CCS(C)(=O)=O)c3)c(Oc3ncccc3C#N)c2CC[C@@H]1C [I-566] | 1000 to 10000 | 50 to 500 | > 1000
COC(=O)N1c2ccc(-c3cnn(CC(C)(C)O)c3)c(Oc3ncccc3C#N)c2CC[C@@H]1C [I-567] | 1000 to 10000 | 50 to 500 | 500 to 1000
COC(=O)N1c2ccc(-c3cnn(CCO)c3)c(Oc3ncccc3C#N)c2CC[C@@H]1C [I-568] | 1000 to 10000 | 50 to 500 | < 500
COC(=O)N1c2ccc(-c3cnn(CCS(C)(=O)=O)c3)c(Oc3ncc(C(F)(F)F)cn3)c2CC[C@@H]1C [I-578] | 1000 to 10000 | 50 to 500 | > 1000
COC(=O)N1c2ccc(-c3cnn(CC(C)(C)O)c3)c(Oc3ncc(C(F)(F)F)cn3)c2CC[C@@H]1C [I-579] | 1000 to 10000 | 50 to 500 | > 1000
COC(=O)N1c2ccc(-c3cnn(CCO)c3)c(Oc3ncc(C(F)(F)F)cn3)c2CC[C@@H]1C [I-580] | 1000 to 10000 | 50 to 500 | 500 to 1000
COC(=O)N1c2ccc(-c3cnn(CCS(C)(=O)=O)c3)c(Oc3ncc(C)cn3)c2CC[C@@H]1C [I-582] | 1000 to 10000 | 50 to 500 | > 1000
COC(=O)N1c2ccc(-c3cnn(CC(C)(C)O)c3)c(Oc3ncc(C)cn3)c2CC[C@@H]1C [I-583] | 1000 to 10000 | 50 to 500 | < 500
COC(=O)N1c2ccc(-c3cnn(CCO)c3)c(Oc3ncc(C)cn3)c2CC[C@@H]1C [I-584] | 1000 to 10000 | 50 to 500 | 500 to 1000
COC(=O)N1c2ccc(-c3cnn(CCS(C)(=O)=O)c3)c(Oc3ncccc3C(N)=O)c2CC[C@@H]1C [I-586] | 1000 to 10000 | 50 to 500 | > 1000
COC(=O)N1c2ccc(-c3cnn(CCS(C)(=O)=O)c3)c(Oc3ncc(C(F)(F)F)cc3F)c2CC[C@@H]1C [I-588] | 1000 to 10000 | 50 to 500 | > 1000
COC(=O)N1c2ccc(-c3cnn(CC(C)(C)O)c3)c(Oc3ncc(C(F)(F)F)cc3F)c2CC[C@@H]1C [I-589] | 1000 to 10000 | 50 to 500 | 500 to 1000
COC(=O)N1c2ccc(-c3cnn(CCO)c3)c(Oc3ncc(C(F)(F)F)cc3F)c2CC[C@@H]1C [I-590] | 1000 to 10000 | 50 to 500 | 500 to 1000
CC(=O)N1c2ccc(-c3cnn(C4CC4)c3)c(Oc3ccccc3)c2CC[C@@H]1C [I-594] | 100 to 1000 | < 50 | < 500
CC(=O)N1c2ccc(-c3cnn(C4CC4)c3)c(Oc3ccc(C(=O)N(C)C)cc3)c2CC[C@@H]1C [I-595] | 100 to 1000 | 50 to 500 | < 500
COC(=O)N1c2ccc(-c3cnn(C4CCNCC4)c3)c(Oc3cccc(C#N)c3)c2CC[C@@H]1C [I-596] | 1000 to 10000 | 50 to 500 | < 500
CC(=O)N1c2ccc(-c3cnn(C4CC4)c3)c(Oc3ccccc3)c2CCC1C (stereo not drawn) [I-597] | 1000 to 10000 | 50 to 500 | < 500
CC1CCc2c(ccc(-c3cnn(C4CC4)c3)c2Oc2ccccc2)N1C(=O)C1CC1 (stereo not drawn) [I-598] | 100 to 1000 | 50 to 500 | < 500
CC(=O)N1c2ccc(-c3cnn(C4COC4)c3)c(OC[C@@H]3CCNC3)c2CC[C@@H]1C [I-600] | 100 to 1000 | 50 to 500 | > 1000
CC(=O)N1c2ccc(-c3cnn(C4CC4)c3)c(OC[C@@H]3CCNC3)c2CC[C@@H]1C [I-602] | 100 to 1000 | 50 to 500 | 500 to 1000
CC(=O)N1c2ccc(-c3cnn(C4CC4)c3)c(OC[C@H]3CCNC3)c2CC[C@@H]1C [I-603] | 100 to 1000 | 50 to 500 | > 1000

Further lines, results first:

IC50 [1] [nM] | IC50 [2] [nM] | IC50 [3] [nM] | SMILES
1000 to 10000 | 50 to 500 | 500 to 1000 | COC(=O)N1c2ccc(-c3cnn(C4CC4)c3)c(Oc3ncccc3C(F)(F)F)c2CC[C@@H]1C [I-565]
1000 to 10000 | 50 to 500 | < 500 | COC(=O)N1c2ccc(-c3cnn(C4CC4)c3)c(Oc3ncccc3C#N)c2CC[C@@H]1C [I-569]
1000 to 10000 | 50 to 500 | > 1000 | COC(=O)N1c2ccc(-c3cnn(CCS(C)(=O)=O)c3)c(Oc3ncc(C4CC4)cn3)c2CC[C@@H]1C [I-570]
1000 to 10000 | 50 to 500 | 500 to 1000 | COC(=O)N1c2ccc(-c3cnn(CC(C)(C)O)c3)c(Oc3ncc(C4CC4)cn3)c2CC[C@@H]1C [I-571]
1000 to 10000 | 50 to 500 | < 500 | COC(=O)N1c2ccc(-c3cnn(CCO)c3)c(Oc3ncc(C4CC4)cn3)c2CC[C@@H]1C [I-572]
1000 to 10000 | 50 to 500 | 500 to 1000 | COC(=O)N1c2ccc(-c3cnn(C4CC4)c3)c(Oc3ncc(C4CC4)cn3)c2CC[C@@H]1C [I-573]
1000 to 10000 | 50 to 500 | 500 to 1000 | COC(=O)N1c2ccc(-c3cnn(CCS(C)(=O)=O)c3)c(Oc3ncc(F)cn3)c2CC[C@@H]1C [I-574]
1000 to 10000 | 50 to 500 | 500 to 1000 | COC(=O)N1c2ccc(-c3cnn(CC(C)(C)O)c3)c(Oc3ncc(F)cn3)c2CC[C@@H]1C [I-575]
1000 to 10000 | ≥ 500 | > 1000 | COC(=O)N1c2ccc(-c3cnn(CCO)c3)c(Oc3ncc(F)cn3)c2CC[C@@H]1C [I-576]
1000 to 10000 | 50 to 500 | < 500 | COC(=O)N1c2ccc(-c3cnn(C4CC4)c3)c(Oc3ncc(F)cn3)c2CC[C@@H]1C [I-577]
1000 to 10000 | 50 to 500 | > 1000 | COC(=O)N1c2ccc(-c3cnn(C4CC4)c3)c(Oc3ncc(C(F)(F)F)cn3)c2CC[C@@H]1C [I-581]
100 to 1000 | 50 to 500 | < 500 | COC(=O)N1c2ccc(-c3cnn(C4CC4)c3)c(Oc3ncc(C)cn3)c2CC[C@@H]1C [I-585]
1000 to 10000 | 50 to 500 | 500 to 1000 | COC(=O)N1c2ccc(-c3cnn(C4CC4)c3)c(Oc3ncccc3C(N)=O)c2CC[C@@H]1C [I-587]
1000 to 10000 | 50 to 500 | 500 to 1000 | COC(=O)N1c2ccc(-c3cnn(C4CC4)c3)c(Oc3ncc(C(F)(F)F)cc3F)c2CC[C@@H]1C [I-591]
1000 to 10000 | 50 to 500 | < 500 | COC(=O)N1c2ccc(-c3cnn(C4CC4)c3)c(Oc3ccccc3)c2CCC1C (stereo not drawn) [I-599]
